Test system: KSHV genome replication in BCBL-1 cells
Assay: Relative viral genomic copy number (latency) by qPCR in BCBL-1 cells
Type: cell-based
Details: Fig. S1F, 100 μM, 48 h

Ac-YGRKKRRQRRRGGVNQSASQSSN-NH2 [p8]
Relative viral genomic copy number (replicate 1): 1.16
Relative viral genomic copy number (replicate 2): 1.11
Relative viral genomic copy number (replicate 3): 0.96

Source: article PMC12047801, “Disrupting the OTUD4-USP7 deubiquitinase complex to suppress herpesvirus replication: a novel antiviral strategy” (PLOS Pathogens, 2025)
